Laboratory results reported in patent publication US12570612B2, “Substituted nitrogen heterocyclic compound and anesthetic effect thereof” (priority 2019, dated 2026).
“Also recorded” adds a separate entry of the source.

Assays:
Sprague-Dawley rats [1] = test: animal or person; details: for ED50: Rattus norvegicus; for Approximate therapeutic index / Minimal lethal dose: rats
Description: (§1) Adult male Sprague-Dawley rats (250-300 g) were selected for the experiment. […] The anesthesia effects of the compounds were assessed in rats using a LORR assay and a period >30 s was considered as an indicator of general anesthesia.

Sprague-Dawley rats [2] = test: Pharmacological characteristics at equivalent doses (2ED50), Group A compounds; type: in vivo; details: 2ED50, tail vein; for Types and incidence of adverse reactions: (animals affected/animals)
H295R cell line [3] = test: Adrenocortical function in vitro test: secretion of cortisol and corticosterone, Group A compounds; type: cell-based; details: H295 cells; for EC50: Homo sapiens, 0.1-10000 nM, HPLC-MS/MS
Sprague-Dawley rats [4] = test: animal or person; details: for ED50: LORR in rats, tail vein, brackets = 95% confidence limit; for Approximate therapeutic index / Minimal lethal dose: rats
Description: as §1

H295R cell line [5] = test: Adrenocortical function in vitro test: secretion of cortisol and corticosterone, Group B compounds; type: cell-based; details: H295R cells; for EC50: 0.1-10000 nM, HPLC-MS/MS
Sprague-Dawley rats [6] = test: Continuous infusion at 2 times the MIR for 1 hour, Group B compounds; type: in vivo; details: for Recovery time after stopping infusion: after 1 hour continuous infusion at 2 times the MIR; for Recovery time after stopping infusion / Onset time: rats; for Types and incidence of adverse reactions: Tongue stretching / Types and incidence of adverse reactions: Tremor: continuous infusion 2 x MIR 1 hour, rats affected/rats; for Onset time: continuous tail vein infusion at 2 times the MIR, emulsion
Description: Time to recovery of righting reflex from stopping infusion, and time to fully awake from stopping infusion were recorded.

[7] = read-out: EC50 (Corticosterone)

SMILES	ED50 (Sprague-Dawley rats [1])	Approximate therapeutic index (Sprague-Dawley rats [1])	Minimal lethal dose (Sprague-Dawley rats [1])	Onset time (Sprague-Dawley rats [2])	Righting reflex duration (Sprague-Dawley rats [2])	Corticosterone as an indicator to determine the presence of inhibition (H295R cell line [3])	Cortisol as an indicator to determine the presence of inhibition (H295R cell line [3])	EC50 (H295R cell line [3]; [7])	EC50 (H295R cell line [3]; read-out: EC50 (Cortisol))	Types and incidence of adverse reactions (Sprague-Dawley rats [2])	Approximate therapeutic index (Sprague-Dawley rats [4])	Minimal lethal dose (Sprague-Dawley rats [4])	Corticosterone as an indicator to determine the presence of inhibition (H295R cell line [5])	Cortisol as an indicator to determine the presence of inhibition (H295R cell line [5])	Recovery time after stopping infusion (Sprague-Dawley rats [6])	Types and incidence of adverse reactions: Tremor (Sprague-Dawley rats [6])	Onset time (Sprague-Dawley rats [6])	also measured
C=CC1(OC(=O)c2c(F)cnn2[C@H](C)c2ccccc2)COC1 [Compound A87]	0.5 to 1 mg/kg	>18	>13 mg/kg	0.30 ± 0.12 min	2.21 ± 0.24 min	0	0	> 1000 nM	> 1000 nM									
C=C=CC1(OC(=O)c2c(F)c(F)nn2[C@H](C)c2ccccc2)COC1 [Compound A92]	0.04 to 0.5 mg/kg	>14	>1 mg/kg	0.43 ± 0.22 min	2.03 ± 0.33 min	0	0	> 1000 nM	> 1000 nM	Red and urine(8/8), Tremor(2/8), and Euphoria(1/8)								
CO[C@H]1C[C@@H](OC(=O)c2c(F)c(F)nn2[C@H](C)c2ccccc2)C1 [Compound A94]	0.5 to 1 mg/kg	>12	>12 mg/kg	0.33 ± 0.12 min	1.26 ± 0.40 min	0	0	> 1000 nM	> 1000 nM	Red and urine(8/8), Tremor(3/8), and Four limbs and rigidity(2/8), Euphoria(1/8)								
CC(=O)C1=C(OC(=O)c2c(F)c(F)nn2[C@H](C)c2ccccc2)CCC1 [Compound A98]	1 to 2 mg/kg	>7	>10 mg/kg	0.30 ± 0.06 min	1.89 ± 0.23 min	0	0	> 1000 nM	> 1000 nM	Red urine(8/8), Facial; also recorded: muscle; also recorded: twitching(2/8), Hindlimb; also recorded: rigidity (1/8)								
C=C=CC1(OC(=O)c2c(C(F)(F)F)cnn2[C@H](C)c2ccccc2)COC1 [Compound A100]	2 to 6 mg/kg	>6	>14 mg/kg	0.49 ± 0.17 min	3.21 ± 0.89 min	0	0	> 100 nM	> 100 nM	Red urine(8/8), Indirect; also recorded: tremor Tremor(4/8), Four; also recorded: limbs; also recorded: rigidity(2/8), Euphoria(2/8)								
COC(=O)C1=C(OC(=O)c2c(C(F)(F)F)cnn2[C@H](C)c2ccccc2)CCCC1 [Compound A101]	1 to 2 mg/kg	>8	>13 mg/kg	0.39 ± 0.21 min	2.29 ± 0.65 min	0	0	> 100 nM	> 100 nM	Red and urine(8/8), Euphoria(3/8), and Nod(2/8)								
C=C=CC1(OC(=O)c2c(Cl)cnn2[C@H](C)c2ccccc2)COC1 [Compound A108]	2 to 6 mg/kg	>5	>15 mg/kg	0.26 ± 0.20 min	3.29 ± 1.20 min	0	0	> 100 nM	> 100 nM	Red urine(8/8), Hindlimb; also recorded: rigidity (7/8), the four; also recorded: limbs Tremor(3/8)								
C=C=CC1(OC(=O)c2cnnn2[C@H](C)c2ccccc2)COC1 [Compound B3]											>32	>6 mg/kg	0	0	15 to 16 min	Tremor(4/6), Tongue	3 to 4 min	ED50 (Sprague-Dawley rats [4]; Rattus norvegicus): 0.04 to 0.5 mg/kg; EC50 (H295R cell line [5]; Homo sapiens, NCI-H295R, read-out: EC50 (Corticosterone)): > 1000 nM; EC50 (H295R cell line [5]; Homo sapiens, NCI-H295R, read-out: EC50 (Cortisol)): > 1000 nM; Types and incidence of adverse reactions: Tongue stretching (Sprague-Dawley rats [6]): stretching(3/6)
C[C@H](c1ccccc1)n1nncc1C(=O)OC1CCC1 [Compound B6]											>71	>10 mg/kg	0	0	14 to 16 min	Tremor(2/6), Tongue	4 to 6 min	ED50 (Sprague-Dawley rats [4]): A (A indicates that the measured ED50 is in the range of 0.04-0.50 mg/kg (including 0.04 and 0.50 mg/kg)); EC50 (H295R cell line [5]; [7]): > 100 nM; EC50 (H295R cell line [5]; read-out: EC50 (Cortisol)): > 100 nM; Types and incidence of adverse reactions: Tongue stretching (Sprague-Dawley rats [6]): stretching(2/6)
C[C@H](c1ccccc1)n1nncc1C(=O)OC(C)(C)C [Compound B12]											>16	>5 mg/kg	0	0	13 to 15 min	Tremor(3/6)	5 to 6 min	ED50 (Sprague-Dawley rats [4]): A (A indicates that the measured ED50 is in the range of 0.04-0.50 mg/kg (including 0.04 and 0.50 mg/kg)); EC50 (H295R cell line [5]; [7]): > 1000 nM; EC50 (H295R cell line [5]; read-out: EC50 (Cortisol)): > 1000 nM
